Test results published in paper PMC4820240 (Angewandte Chemie (International ed. in English), 2016).

Assays:
A549 cells = experiment: Cytotoxicity of CPPs towards A549 cells; format: cell-based; conditions: read-out: IC50 A549; toxicity towards A549 cells
MCF-7 cells = conditions: read-out: IC50 MCF-7; toxicity towards MCF-7 cells
HeLa cells = conditions: read-out: IC50 HeLa; toxicity towards HeLa cells
human RBCs = conditions: read-out: EC50 RBCs (hemolysis); freshly isolated human RBCs
[1] = Serum stability in 25% serum solution; conditions: 25% serum solution as a function of time (Figure 4B legend)

Question: With `N=C(N)NCCC[C@H](NC(=O)[C@H](CCCNC(=N)N)NC(=O)[C@H](CCCNC(=N)N)NC(=O)[C@H](CCCNC(=N)N)NC(=O)[C@H](CCCNC(=N)N)NC(=O)[C@H](CCCNC(=N)N)NC(=O)[C@H](CCCNC(=N)N)NC(=O)[C@@H](N)CCCNC(=N)N)C(N)=O` [R8] as the compound, how does the IC50 (A549 cells) read?
Answer: Its IC50 is > 1000 µM.

Question: And the IC50 (MCF-7 cells)?
Answer: Its IC50 is 170 µM.

Question: What about the IC50 (HeLa cells) of the same compound?
Answer: Its IC50 is 269 µM.

Question: What about the EC50 (human RBCs) of the same compound?
Answer: Its EC50 is 371 µM.

Question: For `N=C(N)NCCC[C@H](NC(=O)CN)C(=O)N[C@@H](CCCCN)C(=O)N[C@@H](CCCCN)C(=O)N[C@@H](CCCNC(=N)N)C(=O)N[C@@H](CCCNC(=N)N)C(=O)N[C@@H](CCC(N)=O)C(=O)N[C@@H](CCCNC(=N)N)C(=O)N[C@@H](CCCNC(=N)N)C(=O)N[C@@H](CCCNC(=N)N)C(=O)N1CCC[C@H]1C(=O)N1CCC[C@H]1C(=O)N[C@@H](CCC(N)=O)C(N)=O` [TAT], which IC50 (A549 cells) is on record?
Answer: Its IC50 is > 1000 µM.

Question: What about the IC50 (MCF-7 cells) of the same compound?
Answer: Its IC50 is 603 µM.

Question: And the IC50 (HeLa cells)?
Answer: The IC50 was > 1000 µM.

Question: And the “t1/2, serum stability” value [1]?
Answer: Its value is 1.7 h.

Question: And the EC50 (human RBCs)?
Answer: Its EC50 is 269 µM.
